Laboratory results from US7320967B2, “Cosmetic composition, method of cosmetic treatment and preparation of a composition for promoting the growth and/or preventing or delaying the loss of hair” (L'Oreal, priority 2002, dated 2008).
Where two headings read alike, the source gives them in different places.

Key:
15-PGDH = target: T1, 15-PGDH (Homo sapiens, UniProt P15428); experiment: 15-PGDH test (maximum reaction rate, optical density at 340 nm); format: biochemical
T1 construct: GST (glutathione S-transferase, pGEX 4T3) (N, cleaved yes); made in house; host or cells: E. coli BL21DE3plys
T1 sequence (P15428 1-266): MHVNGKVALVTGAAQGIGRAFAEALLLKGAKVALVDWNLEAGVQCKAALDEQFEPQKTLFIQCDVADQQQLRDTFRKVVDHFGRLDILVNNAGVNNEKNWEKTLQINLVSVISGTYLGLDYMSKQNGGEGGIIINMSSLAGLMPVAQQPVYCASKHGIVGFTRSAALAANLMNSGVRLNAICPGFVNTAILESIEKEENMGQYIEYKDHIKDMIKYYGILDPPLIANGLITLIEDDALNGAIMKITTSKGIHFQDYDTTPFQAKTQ
Procedure: For that, the following are for example brought into contact: the enzyme 15-PGDH at a final concentration of 7×10^−3 mg/ml, its cosubstrate (β-NAD) and a substrate (PGE2) at the concentrations corresponding to the conditions conventionally used for this test as described for example by Cho and Tai (Inhibition of NAD-dependent 15-hydroxyprostaglandin dehydrogenase (15-PGDH) by cyclooxygenase inhibitors and chemopreventive agents. Prostaglandins, Leukotrienes and Essential Fatty Acids, 2002, 67(6): 461-465), for example 1.5 mM β-NAD and 50 μM prostaglandin E2. The rate of the reaction is measured at 37° C. for 1 minute. The same reaction is carried out, but adding the test compound to the medium at the start of the reaction. The maximum enzyme reaction rate per unit of time (Vmax) measured in the presence of the compound is compared to that of the control with no compound, and the percentage inhibition [100−(Vmax assay×100)/Vmax control] is determined.
The enzyme obtained is at the concentration of 0.3 mg/ml and is blocked at −80° C. This suspension is thawed and stored on ice.
Preparation of a 100 mM Tris buffer pH=7.4 containing 0.1 mM dithiothreitol (D5545, Sigma-Aldrich, L'isle D'Abeau Chesne, BP 701, 38297, Saint Quentin Fallavier), 1.5 mM β-NAD (N6522, Sigma-Aldrich, L'isle D'Abeau Chesne, BP 701, 38297, Saint Quentin Fallavier), 50 μM Prostaglandin E2 (P4172, Sigma-Aldrich, L'isle D'Abeau Chesne, BP 701, 38297, Saint Quentin Fallavier).
0.965 ml of this buffer (previously heated to 37° C.) is introduced into a spectrophotometer cuvette (Perkin-Elmer, Lambda 2) thermostated at 37° C., whose wavelength for measurement is set at 340 nm. 0.035 ml of enzymatic suspension at 37° C. are introduced into the cuvette concomitantly with the recording (increase in the optical density at 340 nm).
(§1) The maximum reaction rate is recorded.
(§2) The test values (molecules) are compared with the control value (with no molecule), the results are expressed as % of the control value.

PGFS = target: T2, PGFS (Homo sapiens, UniProt P42330, H5Q); experiment: PGFS test (maximum reaction rate, optical density at 340 nm); format: biochemical; settings: for IC50: protocol of Example 3
T2 construct: GST (glutathione S-transferase, pGEX 2T) (N, cleaved yes); made in house; host or cells: E. coli BL21DE3
T2 sequence (P42330 1-323 H5Q): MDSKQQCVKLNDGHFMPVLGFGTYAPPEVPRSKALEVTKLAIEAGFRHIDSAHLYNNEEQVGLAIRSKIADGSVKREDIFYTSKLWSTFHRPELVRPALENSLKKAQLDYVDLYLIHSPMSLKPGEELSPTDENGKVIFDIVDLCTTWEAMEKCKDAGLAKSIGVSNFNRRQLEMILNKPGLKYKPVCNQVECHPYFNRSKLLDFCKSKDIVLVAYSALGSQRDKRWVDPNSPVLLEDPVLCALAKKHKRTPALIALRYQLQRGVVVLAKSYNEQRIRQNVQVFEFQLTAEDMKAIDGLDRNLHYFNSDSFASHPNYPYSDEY
Procedure: The compounds noted as 15-PGDH inhibitors are then tested for their capacity to inhibit PGF synthase. For that, the following are for example brought into contact: the enzyme PGFS at a final concentration of 25×10^−3 mg/l, its cosubstrate (β-NADPH2) and a substrate (for example phenanthrenequinone) at the concentrations conventionally used for this test as described for example by Suzuki et al. (cDNA cloning, expression and mutagenesis study of liver-type prostaglandin F synthase. J Biol Chem, 1999, 274(1): 241-248), that is to say 100 μM β-NADPH2 and 20 μM phenanthrenequinone. The maximum reaction rate is measured per unit of time at 37° C. The same reaction is carried out but adding the test compound to the medium at the start of the reaction. The maximum enzyme reaction rate with the compound is compared to that of the control with no compound, and the percentage inhibition [100−(Vmax assay×100)/Vmax control] is determined.
The enzyme obtained is at a concentration of 0.5 mg/ml and blocked at −80° C. This suspension is thawed and stored on ice.
Preparation in a brown flask (protection from light) of a 100 mM Tris buffer pH=6.5 containing 20 μM 9,10-phenanthrenequinone* (P2896, Sigma-Aldrich, L'isle D'Abeau Chesne, BP 701, 38297, Saint Quentin Fallavier) and 100 μM β-NADPH (N1630, Sigma-Aldrich, L'isle D'Abeau Chesne, BP 701, 38297, Saint Quentin Fallavier). A stock solution having a titre of 1 mM is prepared in absolute ethanol heated to 40° C., the flask is placed in an ultrasonic tank in order to facilitate the solubilization of the product.
0.950 ml of this buffer (previously heated to 37° C.) is introduced into the cuvette of a spectrophotometer (Perkin-Elmer, Lambda 2) thermostated at 37° C. whose wavelength for measurement is set at 340 nm. 0.05 ml of enzymatic suspension at 37° C. is introduced into the cuvette concomitantly with the recording (reduction in the optical density at 340 nm).
as §1, §2

[1] = system: PGF2α secreted by U937 cells; experiment: Cellular model: PGF2α secreted by PMA-differentiated, LPS-stimulated U937 cells; format: cell-based; settings: 5 μM; U937 + 10 nM PMA, then LPS, 6 h
Procedure: This makes it possible to evaluate the efficacy of a selective 15-PGDH inhibitor on the protection of prostaglandins in a complex biological system producing the different types of enzyme involved in the metabolism of these molecules. For example, a culture of promonocytes is used, these being precursors of macrophages under certain conditions, a model which is very widespread for studying the metabolism of prostaglandins.
Indeed, the phorbol esters (10 nM PMA) cause within 24 h 00 min the differentiation of the promonocyte line U937 into macrophages; this differentiation is accompanied by the induction of 15-PGDH. (Tong and Tai, Biochim Biophys Acta, 2000; 1497: 61-68).
Moreover, stimulation of these macrophages by LPS (lipopolysaccharide extracted from the bacterial wall) induces (at 100 ng/ml) in 6 h 00 min PGHS-2 (or COX-2), an enzyme responsible (in the same way as COX-1) for the synthesis of PGH2, a precursor (inter alia) via PGFS, of PGF2α (Arias-Negrete et al., 1995. Biochem Biophys Res Commun, 208(2), 582-589).
In a 1st stage, macrophage precursors are cultured in a suitable medium, in the presence of a compound stimulating their differentiation and the induction of 15-PGDH, and then the production of prostaglandins by these cells is stimulated, for example by LPSs in the form of an extract or by purified LPSs; this 2nd stage is performed in the presence or otherwise of the compound to be tested. The concentrations of prostaglandins, in particular of PGF2α, obtained in the presence of the 15-PGDH inhibiting compound to be tested are compared to that of the control containing only the 15-PGDH inducer, it being possible to carry out this measurement by any method known to a person skilled in the art, in particular by immunoenzymatic assay. […]
All the wells will contain the same final quantity of DMSO.
Immediate evaluation of the quantity of PGF2α secreted by the cells (50 μl) under different conditions (molecules or controls) using an immunoenzymatic assay kit (Cayman ref. 516011). […]

[2] = protocol of Example 3, read-out: Inhibition of 15-PGDH at 50 μM

| Structure (SMILES) | inhibition at 50 µM (15-PGDH; [2]) [%] | IC50 (PGFS) [µM] | PGF2α secreted, % of the control (LPS control) [1] | IC50 (15-PGDH; protocol of Example 3) [µM] | inhibition at 50 µM (15-PGDH; read-out: % Inhibition 15-PGDH) [%] | inhibition at 50 µM (PGFS) [%] |
| --- | --- | --- | --- | --- | --- | --- |
| O=C(Cc1nnn(-c2ccccc2)n1)c1ccccc1 [Compound 1, 1-phenyl-2-(2-phenyl-2H-tetrazol-5-yl)ethanone] | 70 | > 75 | +16% |  |  |  |
| COc1ccccc1NC(=O)Cn1nnc(-c2ccccc2)n1 [Compound 4, N-(2-methoxyphenyl)-2-(5-phenyl-2H-tetrazol-2-yl)acetamide] | 60 | > 75 | +6% | 55 |  |  |
| Cc1ccc(NC(=O)Cn2nnc(-c3cccc(C(F)(F)F)c3)n2)cc1 [Compound R29A, N-(4-methylphenyl)-2-{5-[3-(trifluoromethyl)phenyl]-2H-tetrazol-2-yl}acetamide] |  | > 75 | +46% | 30 |  |  |
| Nc1c(Cl)nc(-c2ccccc2)nc1Cl [Molecule A, 5-amino-4,6-dichloro-2-phenylpyrimidine] |  |  |  |  | 43 | 5 |
| O=C(Nc1ncc2c(n1)CC(c1ccccc1Cl)CC2=O)c1ccccc1 (centres unmarked) [Molecule B, N-[7-(2-Chlorophenyl)-5-oxo-5,6,7,8-tetrahydroquinazolin-2-yl]benzamide] |  |  |  |  | 57 | 10 |
